# Reference: patent US20040039052A1, “Urinary incontinence therapy” (priority 1997, published 2004)
# Legend:
# bladder afferents = conditions: rats; intravesicular 10-100 μmol; cited from earlier work
# [1] = solubility and stability of RTX solutions; assay type: physicochemical
# Method: (§1) The molecular weight of RTX is 628.72 for the clinical studies described herein. A 10 μM stock solution, 6.3 μg/mL was prepared by dissolving 6.32 mg of 99.5% pure RTX in 1000 mL absolute ethanol. Solutions for therapeutic use were diluted from the ethanolic stock solution into sterile normal saline (0.9% w/v NaCl) or a saline-ethanol mixture such that the final solution was 10% (v/v) ethanol. Therapeutic efficacy was tested for RTX concentrations of 1 μM, 0.1 μM and 0.05 μM. […] Prior to administration, RTX solutions were sterilized by filtration.
# However, the compounds are soluble in ethanol. Pure ethanol cannot be instilled into the bladder because it causes severe pain and irritation of the bladder mucosa. […] The foregoing solution, after filter sterilization, can be directly instilled into the urinary bladder. A typical instillation volume is 100 ml, although it is possible to instill somewhat larger or smaller volumes, as is understood in the art.
# [2] = system: vanilloid receptor-mediated release of tachykinins in the rat urinary bladder; conditions: rat urinary bladder; cited from earlier work
# rat urinary bladders = conditions: anesthetized rats; repeated perfusions; cited from earlier work
# [3] = system: patients having bladder hyperactivity; assay: 14-patient study: single intravesical RTX instillation; fill cystometry (MCC), urination diary; assay type: in vivo, human; conditions: for Bladder Capacity, % Change / Bladder Capacity, Change from Pre-RTX: Bladder Capacity <200 mL; for Bladder Capacity, % Change / Bladder Capacity, Change from Pre-RTX / Bladder Capacity: n 7; for Mean Incontinent Episodes/day, % Change / Mean Incontinent Episodes/day, Difference from Pre-RTX / Mean Incontinent Episodes/day: n = 8; for Mean incontinent episodes: Pre-RTX 2.1; for Mean bladder capacity: Pre-RTX 182; for Bladder Capacity: patients with Bladder Capacity <200 mL, Pre-RTX 86; for Mean Incontinent Episodes/day: Pre-RTX 3.6
# Description: Clinical studies reported herein include the following: observations from the patient's urination diary and their overall assessment of bladder function, maximum cystometric capacity of the bladder, and daily urinary frequency and incontinence episodes. […] Useful and effective treatment is that which alleviates any of the symptoms associated with neurogenic urinary dysfunction.
# Patients chosen for study were of either sex, between the ages of 30 and 75, and weighing between 60 kg and 110 kg. Patients were selected having bladder hyperactivity associated with spinal cord injury, multiple sclerosis, peripheral neuropathy, muscular dystrophy or bladder instability. Pregnant women were excluded from the study as were those exposed to any other investigational drug within 30 days of baseline, those exposed to drugs affecting bladder performance or detrusor function within 10 days of baseline, those with known chemical addiction, those with seizure activity or major psychiatric disorders, and those with clinically significant cardiovascular, renal or hepatic disease, upper respiratory disease, malignant disease or clinically significant abnormal clinical laboratory values. Patients taking anti-cholinergic drugs were generally excluded except in a rare instance at the discretion of the investigator, in which case the dosage of anti-cholinergic drug was not changed during the study. Patients previously treated with capsaicin were first monitored to insure a return to baseline parameters in the absence of capsaicin. Preliminary studies to determine RTX dosage efficacy were performed with patients who had previous experience with intravesical capsaicin administration for treatment of bladder hyperactivity. Once a dose range for the study was determined, both previously capsaicin-treated and -untreated patients were employed.
# as §1
# Fill cystometry: A two-way 8 F urethral catheter was inserted in the bladder under clean conditions. The residual urine was emptied. Infusion of saline at body temperature was started at a constant speed of […]. Patients were asked to indicate the moment of first desire to void (FDV) and any other sensation. The infusion was stopped at compulsive desire to void and the infused volume taken as the maximal cystometric capacity (MCC). Bladder pressure at which MCC occurs was also recorded. A prophylactic antibiotic (ciprofloxacin, 500 mg every 8 hours) was given during the next 48 hours.
# Ice-Water test: The patient was clean catheterized with a two-way urethral catheter. A volume of 50 ml of iced saline (or half of the MCC found in cystometry) was put in a catheter-irrigating syringe and injected into the bladder during a period of 20 seconds. Bladder pressure was constantly measured. The test was considered positive (abnormal) if an involuntary bladder contraction was recorded during the next 60 seconds.
# RTX Instillation: An 18 or 20 F three-way Foley catheter was used. The balloon was inflated to 20 ml and maintained gently pulled against the bladder neck to reduce leakage of RTX.
# Up to 100 mL RTX solution was introduced into an emptied bladder, retained in the bladder for 30 minutes, then the bladder was emptied and rinsed with normal saline. Prior to treatment, baseline measurements of MCC, micturition frequency and ice water test response made. […]
# Patients 1, 2, 6, 7, 8 and 13 received 0.05 μM RTX. The rest received 0.1 μM RTX. […]
# [4] = day 14, Frequency ≧ 10/day, n = 7
# [5] = day 14, Incontinence > episode/day
# [6] = day 14, intent-to-treat, n = 14
# [7] = day 30, Frequency ≧ 10/day, n = 7
# [8] = day 30, Incontinence > episode/day
# [9] = day 30, intent-to-treat, n = 14
# [10] = day 60, Frequency ≧ 10/day, n = 7
# [11] = day 60, Incontinence > episode/day
# [12] = day 60, intent-to-treat, n = 14
# [13] = day 90, Frequency ≧ 10/day, n = 7
# [14] = day 90, Incontinence > episode/day
# [15] = day 90, intent-to-treat, n = 14
# [16] = patients able to do spontaneous micturitions
smiles,measurement,setting,value
"C=C(C)[C@]12C[C@@H](C)[C@@]34O[C@](Cc5ccccc5)(O[C@@H]1[C@@H]3C=C(COC(=O)Cc1ccc(O)c(OC)c1)C[C@]1(O)C(=O)C(C)=C[C@@H]41)O2 [RTX, resiniferatoxin]",desensitization of bladder afferents,bladder afferents,long-lasting desensitization of bladder afferents
same,stability of stock solution,"[1]; absolute ethanol, stored in the dark, preferably refrigerated",stably maintained
same,solubility in water,"[1]; completely aqueous medium, therapeutic dose",insufficiently soluble in water
same,stability of solutions,"[1]; ethanolic stock and dilutions in saline, 10% (v/v) ethanol, 4° C., shielded from light",stable under refrigeration (4° C.) shielded from light
same,solubility after dilution of ethanolic solution into aqueous medium,"[1]; normal saline, not greater than 20% (v/v) ethanol",RTX remains in solution
same,desensitization to repeated doses,[2],Desensitization to repeated doses of RTX was observed
same,potency relative to CAP,[2],1000 times
same,desensitizing effect of bladder perfusion,rat urinary bladders,desensitization was occurring
same,"patients with meaningful effects, decreases in frequency, urge or wetness",[3]; 14-patient study,71%
same,MCC,"[3]; Patient #10 (spinal cord injury), 100 μM RTX instillation, day 14, Baseline MCC 80 ml",500 mL
same,leaks on the worst day,"[3]; Patient #10, 100 μM RTX instillation, before treatment incontinence episodes more than 7 times per day",2-3 times per day
same,"incontinence episodes, Case #11","[3]; after RTX (0.1 μM), no improvement during placebo",substantially decreased incontinence episodes
same,symptoms evoked by RTX instillation,"[3]; all patients, noted by a few patients during the first minutes of the treatment",itching or mild discomfort were the only symptoms evoked by RTX
same,"incontinence episodes, Case #7","[3]; between days 14 and 30 post-treatment, 0.05 μM, prior: at least once between catheterizations",only one incontinence episode
same,"Bladder Capacity, % Change",[3]; day 14,+224%
same,"Bladder Capacity, Change from Pre-RTX",[3]; day 14,+193 mLs
same,"Mean Frequency/day, % Change",[3]; [4],−34%
same,"Mean Frequency/day, Change from Pre-RTX",[3]; [4],-5.3 day⁻¹
same,"Mean Incontinent Episodes/day, % Change",[3]; [5],−44%
same,"Mean Incontinent Episodes/day, Difference from Pre-RTX",[3]; [5],-1.6 day⁻¹
same,Mean Frequency/day,"[3]; day 14, intent-to-treat analysis, n = 14, Pre-RTX 9.1",6.9 day⁻¹
same,"Mean Frequency/day, Difference from pre-RTX",[3]; [6],-2.2 day⁻¹
same,"Mean bladder capacity, Difference from pre-RTX",[3]; [6],95 mL
same,"Mean incontinent episodes, Difference from pre-RTX",[3]; [6],−1.0
same,Mean incontinent episodes,[3]; [6],1.0
same,Mean bladder capacity,[3]; [6],277 mL
same,Bladder Capacity,"[3]; day 14, single instillation 0.05 or 0.1 μM",279 mLs
same,Mean Frequency/day,"[3]; day 14, patients with Frequency ≧ 10/day, n = 7, Pre-RTX 15.7",10.4 day⁻¹
same,Mean Incontinent Episodes/day,"[3]; day 14, patients with Incontinence > episode/day",2.0 day⁻¹
same,"Bladder Capacity, % Change",[3]; day 30,+156%
same,"Bladder Capacity, Change from Pre-RTX",[3]; day 30,+134 mLs
same,"Mean Frequency/day, % Change",[3]; [7],−28%
same,"Mean Frequency/day, Change from Pre-RTX",[3]; [7],-4.4 day⁻¹
same,Mean Frequency/day,"[3]; day 30, Frequency ≧ 10/day, n = 7, Pre-RTX 15.7",11.3 day⁻¹
same,"Mean Incontinent Episodes/day, % Change",[3]; [8],−64%
same,"Mean Incontinent Episodes/day, Difference from Pre-RTX",[3]; [8],-2.3 day⁻¹
same,Mean Incontinent Episodes/day,[3]; [8],1.3 day⁻¹
same,"Mean Frequency/day, Difference from pre-RTX",[3]; [9],-1.6 day⁻¹
same,"Mean bladder capacity, Difference from pre-RTX",[3]; [9],64 mL
same,"Mean incontinent episodes, Difference from pre-RTX",[3]; [9],−1.4
same,Mean incontinent episodes,[3]; [9],0.7
same,Mean Frequency/day,"[3]; day 30, intent-to-treat, n = 14, Pre-RTX 9.1",7.5 day⁻¹
same,Mean bladder capacity,[3]; [9],247 mL
same,Bladder Capacity,[3]; day 30,220 mLs
same,"Bladder Capacity, % Change",[3]; day 60,+159%
same,"Bladder Capacity, Change from Pre-RTX",[3]; day 60,+137 mLs
same,"Mean Frequency/day, % Change",[3]; [10],−34%
same,"Mean Frequency/day, Change from Pre-RTX",[3]; [10],-5.3 day⁻¹
same,Mean Frequency/day,"[3]; day 60, Frequency ≧ 10/day, n = 7, Pre-RTX 15.7",10.4 day⁻¹
same,"Mean Incontinent Episodes/day, % Change",[3]; [11],−67%
same,"Mean Incontinent Episodes/day, Difference from Pre-RTX",[3]; [11],-2.4 day⁻¹
same,Mean Incontinent Episodes/day,[3]; [11],1.2 day⁻¹
same,"Mean Frequency/day, Difference from pre-RTX",[3]; [12],-2.1 day⁻¹
same,"Mean bladder capacity, Difference from pre-RTX",[3]; [12],45 mL
same,"Mean incontinent episodes, Difference from pre-RTX",[3]; [12],−1.7
same,Mean incontinent episodes,[3]; [12],0.4
same,Mean Frequency/day,"[3]; day 60, intent-to-treat, n = 14, Pre-RTX 9.1",7.0 day⁻¹
same,Mean bladder capacity,[3]; [12],228 mL
same,Bladder Capacity,[3]; day 60,223 mLs
same,"Bladder Capacity, Change from Pre-RTX",[3]; day 90,+191 mLs
same,"Mean Frequency/day, % Change",[3]; [13],−31%
same,"Mean Frequency/day, Change from Pre-RTX",[3]; [13],-4.9 day⁻¹
same,Mean Frequency/day,"[3]; day 90, Frequency ≧ 10/day, n = 7, Pre-RTX 15.7",10.8 day⁻¹
same,"Mean Incontinent Episodes/day, % Change",[3]; [14],−58%
same,"Mean Incontinent Episodes/day, Difference from Pre-RTX",[3]; [14],-2.1 day⁻¹
same,Mean Incontinent Episodes/day,[3]; [14],1.5 day⁻¹
same,"Mean Frequency/day, Difference from pre-RTX",[3]; [15],-2.6 day⁻¹
same,"Mean bladder capacity, Difference from pre-RTX",[3]; [15],148 mL
same,"Mean incontinent episodes, Difference from pre-RTX",[3]; [15],−1.5
same,Mean incontinent episodes,[3]; [15],0.6
same,Mean Frequency/day,"[3]; day 90, intent-to-treat, n = 14, Pre-RTX 9.1",6.2 day⁻¹
same,Mean bladder capacity,[3]; [15],330 mL
same,Bladder Capacity,[3]; day 90,277 mLs
same,positive benefit on incontinent episodes,[3]; eight evaluable patients with more than one incontinent episode/day,only one did not show a positive benefit
same,patients in whom bladder capacity (MCC) increased,[3]; out of the 14 patients,11
same,duration of decreased frequency post-treatment,[3]; [16],up to 60 days
same,improvement in MCC,[3]; [16],All patients in the group but one (#1) showed clear improvement (increase) in MCC
same,reported improvement after RTX administration,"[3]; patients requiring self-catheterization or supra-pubic maneuvers (#4, 5, 7, 8 and 11)",all but one (#4) reported improvement
same,full continence after RTX instillation,"[3]; patients who were entirely incontinent (#3, 4, 6, 9, 12, 13 and 14)","five (#3, 6 and 9, 12 and 13) achieved full continence"
same,duration of effect of a single instillation,[3]; single instillation,up to 6 months
